Source: PMC8228075, “In Vitro and In Silico Characterization of G-Protein Coupled Receptor (GPCR) Targets of Phlorofucofuroeckol-A and Dieckol” (Marine Drugs, 2021)
“And” between values parts separate entries of the source, which are not always exact repeats. Identical values can stand only once. Marks after values point to notes of the source that are not given here.

Experiments:
Type in all cases: cell-based
[1] = target: T1, Alpha-2A adrenergic receptor (hα2AAR) (Homo sapiens, UniProt P08913); assay: hα2AAR functional antagonist assay (Ca2+ mobilization, rat basophil leukemia cells); conditions: read-out: Antagonist Effect
T1 construct: host or cells: rat basophil leukemia cells
T1 sequence (P08913 1-465): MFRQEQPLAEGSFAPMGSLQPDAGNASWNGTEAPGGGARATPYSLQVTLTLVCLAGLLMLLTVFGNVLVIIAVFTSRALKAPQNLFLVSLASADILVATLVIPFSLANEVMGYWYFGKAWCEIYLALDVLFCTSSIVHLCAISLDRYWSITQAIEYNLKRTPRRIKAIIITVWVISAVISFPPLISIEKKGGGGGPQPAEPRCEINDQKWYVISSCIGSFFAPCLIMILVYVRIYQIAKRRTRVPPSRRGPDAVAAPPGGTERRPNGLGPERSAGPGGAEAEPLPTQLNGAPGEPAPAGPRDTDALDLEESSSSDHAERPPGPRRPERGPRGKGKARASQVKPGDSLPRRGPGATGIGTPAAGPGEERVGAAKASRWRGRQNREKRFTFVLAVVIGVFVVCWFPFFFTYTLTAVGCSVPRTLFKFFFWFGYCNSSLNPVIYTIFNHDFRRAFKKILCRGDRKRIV
Text: (§1) The in-house assay protocol and experimental conditions are reported in our previous reports. The functional effect of dieckol and PFF-A was characterized based on their modulation effect on cytosolic Ca^2+ ion mobilization using a fluorimetric detection method or by measuring their effect on cAMP modulation using homogeneous time-resolved fluorescence (HTRF) detection.
(§2) The rat basophil leukemia cells were distributed in microplates at a density of 1.1 × 10^4 cells/well after suspending in a HBSS buffer (Invitrogen) containing 20 mM HEPES. Then, the fluorescent probe (Fluo8, AAT Bioquest) mixed with probenecid in HBSS buffer (Invitrogen) complemented with 20 mM Hepes (Millipore) (pH 7.4) was added into each well incubated for 60 min at 30 °C. Thereafter, the assay plates were positioned in a microplate reader (FlipR Tetra, Molecular Device) and we added test compounds, reference agonist/antagonist or HBSS buffer (basal control). Change in fluorescence intensity which varies proportionally to the free cytosolic Ca^2+ ion concentration was measured.

[2] = target: T2, Vasopressin 1A receptor (hV1AR) (Homo sapiens, UniProt P37288); assay: hV1AR functional antagonist assay (Ca2+ mobilization, CHO-V1AR cells); conditions: for Antagonist Effect: % inhibition of control response to 10 nM AVP; for IC50: antagonist effect, mean ± SD, n = 3
T2 construct: host or cells: CHO-V1AR cells
Text: as §1
Then, fluorescent probe (Fluo4, Invitrogen) mixed with probenecid in HBSS buffer (Invitrogen, Carlsbad, CA, USA) supplemented with 20 mM HEPES, pH 7.4 (Invitrogen) was added to each well, allowing to equilibrate with the cells for 60 min at 37 °C, then 15 min at 22 °C.

[3] = target: T3, Cannabinoid receptor 1 (CB1R) (Homo sapiens, UniProt P21554); assay: hCB1R functional antagonist assay (cAMP, HTRF, CHO cells); conditions: CHO, read-out: Antagonist Effect
T3 construct: host or cells: CHO cells
Description: as §1
(§3) Functional activity of phlorotannins over hA2AR, hα2CAR, hCB1R, GLP-1R, and h5-HT1BR was determined by measuring their effects on cAMP production by the HTRF detection method using transected cells expressing human cloned receptors.
The transfected CHO cells were suspended in HBSS buffer (Invitrogen) complemented with 20 mM HEPES (pH 7.4). […] After 30 min of incubation at 37 °C, the cells were lysed and the fluorescence acceptor (D2-labeled cAMP) and fluorescence donor (anti-cAMP antibody labeled with europium cryptate) were added.

[4] = target: T1, Alpha-2A adrenergic receptor (hα2AAR); assay: hα2AAR functional agonist assay (Ca2+ mobilization, rat basophil leukemia cells); conditions: 100 µM; % of control response to 0.1 µM epinephrine bitartrate
Text: as §1, §2

[5] = target: T4, Alpha-2C adrenergic receptor (hα2CAR) (Homo sapiens, UniProt P18825); assay: hα2CAR functional agonist assay (cAMP, HTRF, CHO cells); conditions: for Agonist Effect: % of control response to 1 µM epinephrine; for EC50: agonist effect, mean ± SD, n = 3
T4 construct: host or cells: CHO cells
T4 sequence (P18825 1-462): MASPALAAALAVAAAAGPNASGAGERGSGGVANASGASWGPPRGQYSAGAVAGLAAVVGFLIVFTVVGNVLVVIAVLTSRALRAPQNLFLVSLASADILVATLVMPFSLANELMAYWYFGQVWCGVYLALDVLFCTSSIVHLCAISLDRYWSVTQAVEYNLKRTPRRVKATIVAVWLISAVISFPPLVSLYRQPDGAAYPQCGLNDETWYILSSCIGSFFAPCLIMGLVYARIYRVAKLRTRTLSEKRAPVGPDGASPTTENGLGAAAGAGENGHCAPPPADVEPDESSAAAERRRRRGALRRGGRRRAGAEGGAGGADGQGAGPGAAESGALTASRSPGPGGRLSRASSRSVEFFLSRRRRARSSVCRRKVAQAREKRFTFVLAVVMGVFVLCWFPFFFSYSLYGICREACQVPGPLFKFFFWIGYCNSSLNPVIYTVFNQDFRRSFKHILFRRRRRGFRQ
Description: as §1, §3
After 10 min at 37 °C, the cells were lysed and the fluorescence acceptor (D2-labeled cAMP) and fluorescence donor (anti-cAMP antibody labeled with europium cryptate) were added.

[6] = target: T5, δ-opioid receptor (hδ-OPR) (Homo sapiens, UniProt P41143); assay: hδ-OPR functional antagonist assay (Ca2+ mobilization, rat basophil leukemia cells); conditions: for Antagonist Effect: 50 µM; for IC50: antagonist effect, mean ± SD, n = 3; for inhibition at 150 µM: read-out: Antagonist Effect, 150 µM
T5 construct: host or cells: rat basophil leukemia cells
Text: as §1
Thereafter, a mixture of fluorescent probe (Fluo8, AAT Bioquest) and probenecid in HBSS buffer (Invitrogen) complemented with 20 mM Hepes (Millipore) (pH 7.4) was added and plates were incubated for 60 min at 30 °C. Then, the assay plates were positioned in a FlipR Tetra microplate reader (Molecular Device, San Jose, CA, USA) for the addition of the test compound, reference agonist/antagonist, or HBSS buffer (basal control). Change in fluorescence intensity that varies proportionally to the free cytosolic Ca^2+ ion concentration was measured.

[7] = 50 µM, dieckol value flagged as apparent inhibition (at least 25% agonist effect)
[8] = 100 µM, values flagged as apparent inhibition (at least 25% agonist effect)
[9] = % inhibition of control response to 25 nM DPDPE

T2 sequence (P37288 whole entry): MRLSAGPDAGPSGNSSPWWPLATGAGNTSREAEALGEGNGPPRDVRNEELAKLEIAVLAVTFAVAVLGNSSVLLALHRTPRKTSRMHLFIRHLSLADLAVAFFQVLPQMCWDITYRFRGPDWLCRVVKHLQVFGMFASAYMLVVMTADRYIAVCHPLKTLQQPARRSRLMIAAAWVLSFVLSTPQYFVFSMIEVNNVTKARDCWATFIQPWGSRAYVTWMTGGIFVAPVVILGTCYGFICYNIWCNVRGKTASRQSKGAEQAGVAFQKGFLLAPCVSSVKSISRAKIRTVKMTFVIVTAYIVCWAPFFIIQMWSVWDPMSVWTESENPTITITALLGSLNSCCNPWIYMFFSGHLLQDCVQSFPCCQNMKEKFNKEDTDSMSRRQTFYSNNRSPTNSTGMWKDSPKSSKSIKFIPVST
T5 sequence (P41143 whole entry): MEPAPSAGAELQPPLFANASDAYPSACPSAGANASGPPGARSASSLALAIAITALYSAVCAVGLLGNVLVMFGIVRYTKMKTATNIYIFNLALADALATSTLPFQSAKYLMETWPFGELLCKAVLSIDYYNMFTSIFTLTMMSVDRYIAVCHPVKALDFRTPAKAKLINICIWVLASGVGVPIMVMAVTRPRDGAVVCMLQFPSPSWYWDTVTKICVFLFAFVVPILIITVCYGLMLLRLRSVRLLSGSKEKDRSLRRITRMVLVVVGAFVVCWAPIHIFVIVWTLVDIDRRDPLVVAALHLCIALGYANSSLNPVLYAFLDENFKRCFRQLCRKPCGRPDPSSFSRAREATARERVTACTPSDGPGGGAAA
T3 sequence (P21554 whole entry): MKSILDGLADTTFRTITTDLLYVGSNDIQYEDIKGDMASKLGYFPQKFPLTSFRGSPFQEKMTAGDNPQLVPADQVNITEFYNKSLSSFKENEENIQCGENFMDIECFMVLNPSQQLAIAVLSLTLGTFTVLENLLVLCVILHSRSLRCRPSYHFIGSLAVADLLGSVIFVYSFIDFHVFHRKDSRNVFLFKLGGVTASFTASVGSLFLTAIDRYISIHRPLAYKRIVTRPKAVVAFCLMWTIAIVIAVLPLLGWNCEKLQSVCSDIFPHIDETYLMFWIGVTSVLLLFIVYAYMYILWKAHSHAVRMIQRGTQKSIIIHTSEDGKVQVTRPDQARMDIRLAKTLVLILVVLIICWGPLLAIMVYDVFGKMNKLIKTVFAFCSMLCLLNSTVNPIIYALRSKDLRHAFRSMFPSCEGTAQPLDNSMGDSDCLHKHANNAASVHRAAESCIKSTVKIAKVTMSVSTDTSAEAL

Structure (SMILES)	inhibition at 100 µM [1]	Antagonist Effect [2, 7]	Antagonist Effect [2, 8]	IC50 [2]	inhibition at 100 µM ([2]; read-out: Antagonist Effect)	inhibition at 150 µM ([2]; read-out: Antagonist Effect)	inhibition at 100 µM [3]	Agonist Effect [4]	Agonist Effect ([5]; 100 µM)	EC50 [5]	Antagonist Effect [6, 9]	IC50 [6]	inhibition at 150 µM [6, 9]	further results
Oc1cc(O)cc(Oc2c(O)cc(O)c3c2Oc2c(O)cc4oc5c(Oc6cc(O)cc(O)c6)c(O)cc(O)c5c4c2O3)c1 [PFF-A, phlorofucofuroeckol-A]	20.9 ± 1.77%	52.80 ± 8.09%	56.90 ± 5.37 ^c %	42.25 ± 0.41 µM	56.9 ± 5.37%	56.1 ± 4.72%	21.4 ± 0.49%	−0.5 ± 0.85%	83.8 ± 0.07%	23.7 ± 3.32 µM	89.03 ± 0.70%	< 50 µM	93.7 ± 6.67%	Antagonist Effect ([2]; 100 µM, values flagged as apparent inhibition (at least 25% agonist effect), listed as Phlorofucofuroeckol-A): 56.90 ± 5.37 ^b %; inhibition at 25 µM ([2]; read-out: Antagonist Effect): 35.7 ± 3.88%; Agonist Effect ([5]; 12.5 µM): 22.03 ± 6.61%; Agonist Effect ([5]; 25 µM): 55% and 55.0 ± 9.13%; Agonist Effect ([5]; 50 µM): 62.27 ± 6.53%
Oc1cc(O)cc(Oc2c(O)cc(O)c3c2Oc2c(O)cc(Oc4c(O)cc(Oc5c(O)cc(O)c6c5Oc5c(O)cc(O)cc5O6)cc4O)cc2O3)c1 [Dieckol, dieckol]	46.1 ± 20.1%	41.53 ± 7.39 ^c %	57.77 ± 0.32 ^b % and 57.77 ± 0.32 ^c %	82.7 ± 8.73 µM	57.77 ± 0.32%	68.8 ± 0.85%	159 ± 17.8%	13.4 ± 19.87%	52.4 ± 4.24%	98.8 ± 7.71 µM	23.23 ± 4.04%	80.5 ± 13.7 µM	100 ± 1.53%	Agonist Effect ([5]; 150 µM): 73.0 ± 6.42%; Agonist Effect ([5]; 200 µM): 74.77 ± 6.60%; inhibition at 100 µM ([6]; read-out: Antagonist Effect, 100 µM, % inhibition of control response to 25 nM DPDPE): 67 ± 0.92%
